Test system: infectious H77S (GT 1a virus)
Test: HCV infectious virus EC50 determination (HCV RNA by quantitative RT-PCR in infected Rof-0c cells)
Assay type: cell-based, Hepatitis C virus genotype 1a
Details: Hepatitis C virus, GT1A, 72 h, 96-well plate, virus stock grown in human serum, three days post-infection, read-out: potency against infectious H77S (EC50, 50% reduction in HCV RNA)
Procedure: FIG. 6. Potency of an NS5B inhibitor and HCV entry inhibitor against the GT 1a infectious virus. Rof-0c cells were infected with either H77S or the chimera H77S RO-51-5B. At the time of infection, the cells were treated with a serial dilution of either the NS5B inhibitor HCV-796 or the HCV entry inhibitor JS81. After three days, the intracellular RNA was purified and used to determine the amount of HCV RNA.
The presence of HCV RNA was examined after purification of total cellular RNA using the PerfectPure RNA 96 Cell Kit (5 Prime) according to the manufacturer's instructions. To quantitate the amount of HCV RNA, cDNA was amplified using either the Taqman Universal PCR mix (Applied Biosystems) or the TaqMan EZ RT-PCR kit (Applied Biosystems) with a set of primers and probe complementary to a region within the 5′ untranslated region (UTR). The primer and probe sequences are: (HCV 20F) […] (SEQ ID NO:4); (HCV 114R) […] (SEQ ID NO:5); (HCV P43) FAM-[…]-TAMRA (SEQ ID NO:6).
The sensitivity of infectious HCV to antivirals was determined using the genotype 1a strains H77S or H77S RO-51-5B. […] Three days post-infection, the HCV RNA was quantified as described above. […]
Potency of HCV inhibitors against GT1a virus. […] The HCV stocks were analyzed to determine if they would be sufficient to measure the potency of HCV inhibitors. […]

Work on `CNC(=O)c1c(-c2ccc(F)cc2)oc2cc(N(CCO)S(C)(=O)=O)c(C3CC3)cc12` [HCV-796] yielded an EC50 of 32 ± 4 nM.
